# Measurements as given in patent US11298400B2, “Method of enhancing the therapeutic efficacy of fexapotide triflutate in treating LUTS” (Nymox Corporation, priority 2019, dated 2022).
# Marks after values point to notes of the source that are not given here. Ends that are not written are not given here.
# Experiments:
# [1] = test system: Patients with BPH and who optionally also had LUTS; assay: Clinical trial: inability to provide urine volume >125 mL (Qmax unable) after intraprostatic injection; type: in vivo, human; conditions: for improvement in percentage of patients with Qmax failures: FT twice over at least one year; for % of Patients With Inability to Provide Urine Volume >125 mL: intraprostatic
# Description: (§1) Clinical trials were conducted on numerous individuals having BPH, some of whom also had LUTS. All protocols were done in accordance with applicable regulations, and carried out by physicians.
# Patients with BPH and who optionally also had LUTS were given an intraprostatic injection of either a) FT 2.5 mg in phosphate buffered saline pH 7.2 (“PBS”) or b) PBS alone, under double-blind conditions by a urologist in an office setting under ultrasound guidance. Patients were followed for >=3 months to several years with regular physical examinations, laboratory tests, and evaluations of symptoms. […] Subjects who were unable to void >=125 mL despite drinking as much water as they wanted were classified as “Qmax unable”. The numbers of subjects who became Qmax unable was compared in different groups.
# [2] = test system: Patients with BPH and who optionally also had LUTS; assay: Clinical trial: urinary peak flow rate (Qmax) mean change from baseline; type: in vivo, human; conditions: for improvement in peak flow rate mean change from baseline: FT twice over at least one year; for Mean Change of Qmax from baseline: intraprostatic
# Description: as §1
# Patients were followed for >=3 months to several years with regular physical examinations, laboratory tests, and evaluations of symptoms. Urinary peak flow (Qmax) was measured by flow-meter readings using standard techniques, at 3 months and at 12 months or longer in subjects who were able to urinate adequate volume of urine (>125 mL) to provide a valid test. All peak flow measurements were assessed by a blinded central reader. The mean peak flow rate change from baseline was compared in different groups.
# [3] = test system: Patients with BPH and who optionally also had LUTS; assay: Clinical trial: nocturia score (IPSS question 7) mean change from baseline; type: in vivo, human; conditions: for improvement in nocturia score mean change from baseline: FT twice over at least one year; for Nocturia Score Mean Change From Baseline: intraprostatic, IPSS question 7, (SD)
# Source text: Improvements in obstructive and irritative symptoms can be measured in accordance with techniques known in the art. For example, uroflowmeters are known to differentiate urine weight change to provide a continuous plot of the flow rate vs. time that is smoothed by internal electronic filtering to permit precise (±5%) measurement of Qmax. Schafer W, et al. “Good urodynamic practices: Uroflowmetry, filling cystometry and pressure-flow studies,” Neurourol Urodynamics, Vol. 21, pp. 261-74 (2002). Nocturia can be measured in a variety of manners, most of which involve patients completing a questionnaire before and after treatment to establish a baseline, and then determine the difference (improvement, lack of improvement, worsening, etc.) from baseline after treatment. Exemplary questionnaires include evaluating the scores from the nocturia question included in the International Prostate Symptom Score (IPSS), assessing the number of nocturnal voids (Boyarsky symptom score), the Madsen-Iversen Symptom Score, and the ICSmale questionnaire. See, e.g., Chartier-Kastler, et al., “The Measurement of Nocturia and its Impact on Quality of Sleep and Quality of Life in LUTS/BPH,” Eur. Urol. Supp., Vol. 5, pp. 3-11 (2006). A preferred method of measuring nocturia is by determining the mean change from baseline of the nocturia question in the IPSS (question 7). Question 7 solicits from the patient how many times over the past month they had to get up to urinate from the time they went to bed until the time they got up—the score ranging from none (score 0) to 5 or more times (score 5).
# as §1
# Patients with BPH and who optionally also had LUTS were given an intraprostatic injection of either a) FT2.5 in 10 mL phosphate buffered saline pH 7.2 (“PBS”) or b) FT 5.0 mg in PBS or c) FT 2.5 mg in PBS 2-dosages given >1 year apart, or d) PBS 10 mL alone, under double-blind conditions by a urologist in an office setting under ultrasound guidance. Patients were followed for >=3 months to several years with regular physical examinations, laboratory tests, and evaluations of symptoms. The mean difference from baseline nocturia scores to follow-up scores (nocturia scores are the values provided to question #7 in the IPSS) were calculated in FT treated subjects given single dose FT 2.5 mg, single dose FT 0.5 mg, 2-dose 2.5 mg>1 year apart, and Placebo treated controls.
# [4] = test system: prostate glandular epithelial cells; assay: Tissue culture genetic array, in vitro; type: cell-based; conditions: tissue culture genetic array data
# Source text: FT selectively causes loss of cell membrane integrity, mitochondrial metabolic arrest, depletion of RNA, DNA lysis and aggregation, and cell fragmentation and cell loss. The apoptotic process leads to typical ultrastructural progressive changes of membranous disruption and swelling, progressively deepening nuclear invaginations with eventual membranous bleb formations and cell death and fragmentation into apoptotic bodies. Histologically, typical apoptotic changes with positive immunohistochemical staining of markers for apoptosis are found throughout the injected areas for up to several weeks after treatment.
# [5] = compared to a single administration of four times the amount
# [6] = compared to a single administration of twice the amount
# [7] = Two Doses of 2.5 mg FT > 1 year apart
substance,measurement,setting,value
Fexapotide Triflutate (IDQQVLSRIKLEIKRCL; also: trifluoroacetate salt) [FT],inhibition of the progression of urinary flow worsening,"[1]; 2 single dosages of 2.5 mg separated by >1 year, vs one-time 5.0 mg or 10.0 mg dose",significantly better inhibition
same,improvement in percentage of patients with Qmax failures,[1]; [5],about 83.3%
same,improvement in percentage of patients with Qmax failures,[1]; [6],about 81.4%
same,improvement in percentage of patients with Qmax failures,[1]; compared to the control,about 77%
same,% of Patients With Inability to Provide Urine Volume >125 mL,"[1]; Single Dose of 5.0 mg FT, 90 days after last treatment",21%* (90 days)
same,% of Patients With Inability to Provide Urine Volume >125 mL,"[1]; Single Dose of 10.0 mg FT, 90 days after last treatment",23.3%** (90 days)
same,% of Patients With Inability to Provide Urine Volume >125 mL,"[1]; Two Doses of 2.5 mg FT > 1 year apart, 180 days after last treatment",3.9% (180 days)
same,inhibition of the progression of urinary flow worsening,"[1]; double (two 2.5 mg doses) or 4X (four 2.5 mg doses) single dose, vs single dose 2.5 mg",did not have significantly better response than single dose 2.5 mg
same,inhibition of the progression of urinary flow worsening,"[1]; single dose of FT 2.5 mg, after 3 months, vs control groups",not significantly better than control groups
same,improvement in peak flow rate mean change from baseline,[2]; [5],about 47%
same,improvement in peak flow rate mean change from baseline,[2]; [6],about 102%
same,improvement in peak flow rate mean change from baseline,[2]; compared to the control,about 111%
same,Mean Change of Qmax from baseline,[2]; Single Dose of 5.0 mg FT,1.28 mL/s
same,Mean Change of Qmax from baseline,[2]; Single Dose of 10.0 mg FT,1.76 mL/s
same,Mean Change of Qmax from baseline,[2]; [7],2.59 mL/s
same,improvement in nocturia score mean change from baseline,[3]; compared to a single administration of the same individual amount,about 37%
same,improvement in nocturia score mean change from baseline,[3]; compared to a single administration of twice the individual amount,about 19.4%
same,improvement in nocturia score mean change from baseline,[3]; compared to the control,about 48%
same,Nocturia Score Mean Change From Baseline,[3]; Single Dose of 5.0 mg FT,−0.54 (SD 1.1)*
same,Nocturia Score Mean Change From Baseline,[3]; Single Dose of 10.0 mg FT,−0.62 (SD 1.64)*
same,Nocturia Score Mean Change From Baseline,[3]; [7],"−0.74 (SD 1.26)**, ***"
same,"effect on caspase, tumor necrosis factor and BCL pathways",[4],stimulates caspase pathways
